The term Kd denotes the concentration at which binding is half-saturated. A higher Kd goes with weaker binding.

Two molecules from paper PMC3575795 (Nucleic Acids Research, 2012) can be followed below.

The target of this experiment is T1, MfpB (Mycobacterium fluoroquinolone resistance protein B) (Mycolicibacterium smegmatis, UniProt A0QSX9).
T1 sequence (A0QSX9 1-193): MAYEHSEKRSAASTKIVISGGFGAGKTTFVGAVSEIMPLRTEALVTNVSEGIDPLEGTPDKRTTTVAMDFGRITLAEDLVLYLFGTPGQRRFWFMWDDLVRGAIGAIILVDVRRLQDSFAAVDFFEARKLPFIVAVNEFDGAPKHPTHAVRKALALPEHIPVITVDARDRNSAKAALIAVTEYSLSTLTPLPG
In words: isothermal titration calorimetry. The format is binding. On the technique in general: In ITC the heat of successive injections is recorded.

Turning to `Nc1nc2c(ncn2[C@@H]2O[C@H](COP(=O)(O)OP(=O)(O)O)[C@@H](O)[C@H]2O)c(=O)[nH]1` [GDP], the Kd was determined as 10.5 ± 2.9 nM. Then `Nc1nc2c(ncn2[C@@H]2O[C@H](COP(=O)(O)OP(=O)(O)OP(O)(O)=S)[C@@H](O)[C@H]2O)c(=O)[nH]1` [GTP-γ-S], with 11.8 ± 3.2 nM.
